≈ marks a conversion by molar mass, not a printed value. Read-outs that look alike come from different tables or passages of the source.
Experiments:
A. baumannii 1403 [1] = assay: MIC assay, strain 1403; type: cell-based, Acinetobacter baumannii; details: strain 1403; for MIC: Acinetobacter baumannii
Experimental: (§1) MIC and MBC assays were performed in this study as documented by us previously.^17,23,24,25 The A. baumannii strains used are detailed in Table 7.

A. baumannii 1646 [2] = assay: MIC assay, strain 1646; type: cell-based, Acinetobacter baumannii
Experimental: as §1

A. baumannii 1650 [3] = assay: MIC assay, strain 1650; type: cell-based, Acinetobacter baumannii; details: strain 1650
Experimental: as §1

A. baumannii 1651 [4] = assay: MIC assay, strain 1651; type: cell-based, Acinetobacter baumannii; details: strain 1651
Experimental: as §1

A. baumannii 1652 = assay: MIC assay, strain 1652; type: cell-based, Acinetobacter baumannii; details: strain 1652
Experimental: as §1

A. baumannii 1403 [5] = assay: minimal bactericidal concentration (MBC) assay, strain 1403; type: cell-based; details: Acinetobacter baumannii, Table 8, read-out: MBC90 1403
From the text: (§2) Lead quinazolines 4, 5, 26, 29, 27, and 30 were selected to be further evaluated for antimicrobial effects. The first assay utilized was a minimal bactericidal concentration (MBC) assay, to assess whether leads compounds were bacteriostatic or bactericidal. The six lead agents were screened to identify their MBC90 towards each of the six A. baumannii isolates used in the SAR studies (Table 8), however for simplicity only the representative data for isolate 1646 is detailed below (Table 6). […] Further to this, we were able to obtain complete eradication of bacterial growth for these two compounds at 1 μM for 24 and 5 μM for 25.
as §1

A. baumannii 1646 [6] = assay: minimal bactericidal concentration (MBC) assay, strain 1646; type: cell-based, Acinetobacter baumannii
Outline: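 MBC90 determined against A. baumannii clinical isolates to distinguish bactericidal from bacteriostatic activity, following the group's previously published MIC/MBC protocol.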

A. baumannii 1649 = assay: minimal bactericidal concentration (MBC) assay, strain 1649; type: cell-based; details: Acinetobacter baumannii, Table 8, read-out: MBC90 1649
From the text: as §2, §1

A. baumannii 1650 [7] = assay: minimal bactericidal concentration (MBC) assay, strain 1650; type: cell-based; details: Acinetobacter baumannii, Table 8, read-out: MBC90 1650
From the text: as §2, §1

A. baumannii 1651 [8] = assay: minimal bactericidal concentration (MBC) assay, strain 1651; type: cell-based; details: Acinetobacter baumannii, Table 8, read-out: MBC90 1651
From the text: as §2, §1

[9] = test system: A. baumannii 1646 biofilm; assay: biofilm eradication determination assay, strain 1646; type: cell-based, Acinetobacter baumannii
Experimental: (§3) These assays were performed as described by us previously,^26,24 as follows. Each of the A. baumannii strains were grown overnight in Mueller Hinton Broth (MHB). The next day these were used to seed fresh MHB to an OD600 of 0.5, with 150 μL then added to the wells of a 96 well plate and grown for 24 hours at 37° C. After 24 hours, the planktonic bacteria were carefully removed and fresh MHB was added with increasing concentrations of lead quinazolines. After incubation at 37° C. for 24 hours, planktonic cells were removed and biofilms were washed three times with phosphate buffered saline (PBS). Biofilms were then resuspended in PBS and plated for cell viability on tryptic soy agar. Biofilm recovery was assessed compared to no drug controls, and determined as percent eradication. This was used to determine MBEC90 values (Minimal Biofilm Eradication Concentration), where the viability of cells within the biofilm was reduced by 90%.

[10] = test system: A. baumannii 1649 biofilm; assay: biofilm eradication determination assay, strain 1649; type: cell-based, Acinetobacter baumannii; details: 90% biofilm eradication, Table 8
Experimental: as §3

[11] = test system: A. baumannii 1650 biofilm; assay: biofilm eradication determination assay, strain 1650; type: cell-based, Acinetobacter baumannii; details: 90% biofilm eradication, Table 8
Experimental: as §3

[12] = test system: A. baumannii 1651 biofilm; assay: biofilm eradication determination assay, strain 1651; type: cell-based, Acinetobacter baumannii; details: 90% biofilm eradication, Table 8
Experimental: as §3

[13] = test system: A. baumannii 1652 biofilm; assay: biofilm eradication determination assay, strain 1652; type: cell-based, Acinetobacter baumannii; details: 90% biofilm eradication, Table 8
Experimental: as §3

A. baumannii strain 1403 = type: cell-based, Acinetobacter baumannii; details: serial passage, 8 days, start 0.5× MIC
Experimental: An important attribute of novel antibiotics is the ability to fend off the development of resistance towards their effects. To assess this capacity, A. baumannii strains were incubated overnight with 0.5× MIC of each of the frontrunners. The next day cells were washed and used to inoculate fresh media that contained a two-fold increase in drug. This was repeated for a total of 8 days, alongside sulfamethoxazole (SMX) and trimethoprim (TMP) controls, both of which target the same pathway as our lead agents (FIG. 2).
In order to test potential resistance towards the quinazolines, a serial passage assay was performed alongside control compounds (Sulfamethoxazole and Trimethoprim), as described by us previously.^24 A. baumannii strain 1403 was grown overnight in LB media at 37° C. The next day cultures were diluted 1:100 in fresh media and seeded into a 96-well plate. Lead quinazolines or control agents were added to respective wells at half MIC concentrations. […] These were then grown overnight, and the procedure repeated for a total of eight days.

human HepG2 cells = type: cell-based
Experimental: Cytotoxicity assays were performed using human HepG2 cells (human liver epithelial with hepatocellular carcinoma), as described by us previously.^17,24 Cells were cultured in Dulbecco's modified eagle medium (DMEM), supplemented with 10% fetal bovine serum and 1% penicillin-streptomycin for 3 days at 37° C. and 5% CO2. Cells were then diluted to 1×10^5 ml^−1 using fresh DMEM and added to 96 well tissue culture plates at a volume of 100 μL. Plates were incubated for 24 hours at 37° C. and 5% CO2, allowing the cells to adhere to the plastic. […] Plates were then incubated for 48 hours at 37° C. and 5% CO2. After 48 hours the DMEM was removed and 100 μL of new media was added containing MTT (3-(4, 5-dimethylthiazol-2-yl)-2, 5-diphenyltetrazolium bromide), followed by incubation for four hours at 37° C. and 5% CO2. […] Lead compounds were solvated in 100% DMSO for these studies, which served as the negative control. LD50 values were determined for each compound by comparison to vehicle only controls.

CNc1nc(NCc2ccccc2)nc2ccc(C)cc12 [Compound 5, N^2-Benzyl-N^4,6-dimethylquinazoline-2,4-diamine]
MIC (A. baumannii 1403 [1]; Tables 1, 3, 4, 5 and footnotes, read-out: 1403 MIC): 10 µM (≈ 2.78 µg/mL) | MIC (A. baumannii 1403 [1]; lead quinazolines, Table 8, read-out: MIC 1403): 10 µM (≈ 2.78 µg/mL) | 1403 MIC (A. baumannii 1403 [1]; Table 2): 10 μm | MIC (A. baumannii 1646 [2]; Acinetobacter baumannii, Table 6, representative data for isolate 1646, read-out: MIC): 1 µM (≈ 0.278 µg/mL) | MIC (A. baumannii 1646 [2]; Acinetobacter baumannii, strain 1646, Table 2, read-out: 1646 MIC): 2 µM (≈ 0.557 µg/mL) | MIC (A. baumannii 1646 [2]; Acinetobacter baumannii, strain 1646, lead quinazolines, Table 8, read-out: MIC 1646): 1 µM (≈ 0.278 µg/mL) | MIC (A. baumannii 1646 [2]; strain 1646, Tables 1, 3, 4, 5 and footnotes, read-out: 1646 MIC): 2 µM (≈ 0.557 µg/mL) | MIC (A. baumannii 1650 [3]; Acinetobacter baumannii, Table 2, read-out: 1650 MIC): 50 µM (≈ 13.9 µg/mL) | MIC (A. baumannii 1650 [3]; Acinetobacter baumannii, lead quinazolines, Table 8, read-out: MIC 1650): 35 µM (≈ 9.74 µg/mL) | MIC (A. baumannii 1650 [3]; Tables 1, 3, 4, 5 and footnotes, read-out: 1650 MIC): 50 µM (≈ 13.9 µg/mL) | MIC (A. baumannii 1651 [4]; Acinetobacter baumannii, Table 2, read-out: 1651 MIC): 10 µM (≈ 2.78 µg/mL) | MIC (A. baumannii 1651 [4]; Acinetobacter baumannii, lead quinazolines, Table 8, read-out: MIC 1651): 1 µM (≈ 0.278 µg/mL) | MIC (A. baumannii 1651 [4]; Tables 1, 3, 4, 5 and footnotes, read-out: 1651 MIC): 10 µM (≈ 2.78 µg/mL) | MIC (A. baumannii 1652; Acinetobacter baumannii, Table 2, read-out: 1652 MIC): 20 µM (≈ 5.57 µg/mL) | MIC (A. baumannii 1652; Acinetobacter baumannii, lead quinazolines, Table 8, read-out: MIC 1652): 20 µM (≈ 5.57 µg/mL) | MIC (A. baumannii 1652; Tables 1, 3, 4, 5 and footnotes, read-out: 1652 MIC): 20 µM (≈ 5.57 µg/mL) | MBC (A. baumannii 1403 [5]): 30 µM (≈ 8.35 µg/mL) | MBC (A. baumannii 1646 [6]; Acinetobacter baumannii, 1646, strain 1646, Table 8 and text, read-out: MBC90 1646): 0.77 µM (≈ 0.214 µg/mL) | MBC (A. baumannii 1646 [6]; Acinetobacter baumannii, Table 6, representative data for isolate 1646, read-out: MBC90): 0.8 µM (≈ 0.223 µg/mL) | MBC (A. baumannii 1649): 9.3 µM (≈ 2.59 µg/mL) | MBC (A. baumannii 1650 [7]): 27 µM (≈ 7.52 µg/mL) | MBC (A. baumannii 1651 [8]): 1.5 µM (≈ 0.418 µg/mL) | MBEC90 ([9]; Table 6, representative data for isolate 1646): 2.8 µM | reduction in biofilm viability ([9]; at 10 μM, strain 1646): 3 log | MBEC90 1646 ([9]; strain 1646, 90% biofilm eradication, Table 8 and text): 2.8 µM | MBEC90 1649 [10]: 34 µM | MBEC90 1650 [11]: 21 µM | MBEC90 1651 [12]: 11 µM | MBEC90 1652 [13]: 68 µM | increase in MIC over the 8-day test period (A. baumannii strain 1403): 4 fold | HepG2 cell viability (human HepG2 cells; at 25 μM (highest concentration tested)): 44% | LD50(HepG2) (human HepG2 cells; human, 48 h): 22 µM
